Assay [1] is described as follows: DRUGMATRIX: Sodium/nucleoside co-transporter radioligand binding (ligand: nitrobenzylthioinosine). The assay is classed as cell membranes, Cavia porcellus, Dunkin-Hartley, Cerebral cortex, Membrane. The conditions noted are these: Not Active = under 50% inhibition at 10 µM.
The target of assay [2] is Vascular endothelial growth factor receptor 1 (Homo sapiens, UniProt P17948). The assay is classed as cell-based. The conditions noted are these: huvec. Note: in other assays of this panel Not Active means under 50% inhibition at 10 µM.
Chain of Vascular endothelial growth factor receptor 1 (P17948 whole entry): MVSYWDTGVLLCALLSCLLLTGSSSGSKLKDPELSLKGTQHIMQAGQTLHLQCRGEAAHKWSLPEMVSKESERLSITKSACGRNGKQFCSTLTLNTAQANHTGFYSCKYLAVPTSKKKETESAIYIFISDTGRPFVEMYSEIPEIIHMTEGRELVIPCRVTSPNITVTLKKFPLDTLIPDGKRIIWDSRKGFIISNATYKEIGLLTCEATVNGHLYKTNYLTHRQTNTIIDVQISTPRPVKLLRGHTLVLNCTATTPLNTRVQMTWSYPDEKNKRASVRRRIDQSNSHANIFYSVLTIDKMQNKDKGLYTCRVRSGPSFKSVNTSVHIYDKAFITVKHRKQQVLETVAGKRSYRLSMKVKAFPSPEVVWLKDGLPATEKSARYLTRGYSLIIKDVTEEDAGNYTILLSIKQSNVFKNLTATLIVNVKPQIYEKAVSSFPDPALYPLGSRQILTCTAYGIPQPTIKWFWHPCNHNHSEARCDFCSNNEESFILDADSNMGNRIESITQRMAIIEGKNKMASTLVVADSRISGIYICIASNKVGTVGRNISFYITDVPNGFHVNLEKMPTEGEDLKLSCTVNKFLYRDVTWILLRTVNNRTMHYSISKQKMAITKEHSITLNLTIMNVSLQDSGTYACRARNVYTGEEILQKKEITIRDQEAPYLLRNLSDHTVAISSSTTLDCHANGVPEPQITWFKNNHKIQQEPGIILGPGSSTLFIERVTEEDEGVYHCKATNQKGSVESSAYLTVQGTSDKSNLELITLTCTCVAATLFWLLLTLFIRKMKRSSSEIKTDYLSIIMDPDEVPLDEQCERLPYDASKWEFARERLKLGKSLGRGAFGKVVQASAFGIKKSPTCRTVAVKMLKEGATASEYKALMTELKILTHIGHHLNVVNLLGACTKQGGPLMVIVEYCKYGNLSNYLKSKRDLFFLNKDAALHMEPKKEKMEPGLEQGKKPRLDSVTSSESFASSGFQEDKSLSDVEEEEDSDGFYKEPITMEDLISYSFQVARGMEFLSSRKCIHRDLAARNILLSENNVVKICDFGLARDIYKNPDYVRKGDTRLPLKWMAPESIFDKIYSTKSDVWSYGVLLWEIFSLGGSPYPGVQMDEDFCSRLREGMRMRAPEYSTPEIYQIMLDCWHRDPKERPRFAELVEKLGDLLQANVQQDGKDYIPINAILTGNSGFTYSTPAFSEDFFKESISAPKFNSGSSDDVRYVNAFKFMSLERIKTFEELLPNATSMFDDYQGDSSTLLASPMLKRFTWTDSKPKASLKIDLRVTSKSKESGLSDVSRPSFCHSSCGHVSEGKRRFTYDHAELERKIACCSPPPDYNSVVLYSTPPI
Another assay addresses Vasopressin V1a receptor (Homo sapiens, UniProt P37288). The assay is classed as cell membranes, Membrane. The conditions noted are these: hek293.
Assay [3] is described as follows: DRUGMATRIX: GABAA, Flunitrazepam, Central radioligand binding (ligand: [3H] Flunitrazepam). The assay is classed as cell membranes, Rattus norvegicus, Wistar, Brain, Membrane. As to conditions: Not Active = under 50% inhibition at 10 µM.
Assay [4] deals with T1, 3-hydroxy-3-methylglutaryl-coenzyme A reductase (Homo sapiens, UniProt P04035).
T1 sequence (P04035 whole entry): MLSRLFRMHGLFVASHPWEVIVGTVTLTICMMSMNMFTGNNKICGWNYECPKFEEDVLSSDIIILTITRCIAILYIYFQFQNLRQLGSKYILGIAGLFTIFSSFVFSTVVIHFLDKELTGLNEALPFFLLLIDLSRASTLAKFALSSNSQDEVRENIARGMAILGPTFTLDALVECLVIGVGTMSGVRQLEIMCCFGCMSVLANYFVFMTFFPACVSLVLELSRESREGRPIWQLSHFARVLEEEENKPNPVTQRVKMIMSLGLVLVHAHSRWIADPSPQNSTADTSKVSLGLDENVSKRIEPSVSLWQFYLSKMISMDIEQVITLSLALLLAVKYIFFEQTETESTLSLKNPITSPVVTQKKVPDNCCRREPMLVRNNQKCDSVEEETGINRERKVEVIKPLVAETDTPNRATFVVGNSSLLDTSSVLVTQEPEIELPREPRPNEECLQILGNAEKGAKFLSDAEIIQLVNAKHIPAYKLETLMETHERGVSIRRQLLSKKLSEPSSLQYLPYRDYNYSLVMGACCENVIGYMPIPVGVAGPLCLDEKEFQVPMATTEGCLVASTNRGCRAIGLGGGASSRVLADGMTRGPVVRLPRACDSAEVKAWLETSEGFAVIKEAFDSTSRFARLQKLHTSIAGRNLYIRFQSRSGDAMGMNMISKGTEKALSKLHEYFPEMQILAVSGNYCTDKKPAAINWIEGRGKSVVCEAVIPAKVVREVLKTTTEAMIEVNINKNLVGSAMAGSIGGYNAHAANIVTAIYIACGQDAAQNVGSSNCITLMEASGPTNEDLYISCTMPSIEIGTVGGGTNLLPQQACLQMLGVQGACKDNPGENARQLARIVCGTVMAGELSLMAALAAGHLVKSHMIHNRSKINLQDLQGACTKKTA
On the set-up: species or system Escherichia coli.

The target in assay [5] is T2, Muscarinic acetylcholine receptor M2 (Homo sapiens, UniProt P08172). Note: in other assays of this panel Not Active means under 50% inhibition at 10 µM.
T2 sequence (P08172 whole entry): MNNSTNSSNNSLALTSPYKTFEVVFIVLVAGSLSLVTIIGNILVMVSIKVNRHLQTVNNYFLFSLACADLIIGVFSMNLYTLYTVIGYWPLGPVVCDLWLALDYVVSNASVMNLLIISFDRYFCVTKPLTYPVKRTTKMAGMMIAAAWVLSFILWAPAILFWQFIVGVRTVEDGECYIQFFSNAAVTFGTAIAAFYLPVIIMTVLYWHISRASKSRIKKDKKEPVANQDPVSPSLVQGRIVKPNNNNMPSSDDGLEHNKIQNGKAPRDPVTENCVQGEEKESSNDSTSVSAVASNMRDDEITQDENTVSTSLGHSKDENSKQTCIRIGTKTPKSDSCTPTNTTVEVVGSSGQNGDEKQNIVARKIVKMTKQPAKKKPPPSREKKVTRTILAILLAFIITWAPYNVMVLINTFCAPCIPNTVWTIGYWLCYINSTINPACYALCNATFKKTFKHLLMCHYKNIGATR
The assay is classed as cell membranes, CHO-K1, Membrane. The conditions noted are these: cho-k1.

The target in assay [6] is T3, Muscarinic acetylcholine receptor M5 (Homo sapiens, UniProt P08912). Note: in other assays of this panel Not Active means under 50% inhibition at 10 µM.
T3 sequence (P08912 whole entry): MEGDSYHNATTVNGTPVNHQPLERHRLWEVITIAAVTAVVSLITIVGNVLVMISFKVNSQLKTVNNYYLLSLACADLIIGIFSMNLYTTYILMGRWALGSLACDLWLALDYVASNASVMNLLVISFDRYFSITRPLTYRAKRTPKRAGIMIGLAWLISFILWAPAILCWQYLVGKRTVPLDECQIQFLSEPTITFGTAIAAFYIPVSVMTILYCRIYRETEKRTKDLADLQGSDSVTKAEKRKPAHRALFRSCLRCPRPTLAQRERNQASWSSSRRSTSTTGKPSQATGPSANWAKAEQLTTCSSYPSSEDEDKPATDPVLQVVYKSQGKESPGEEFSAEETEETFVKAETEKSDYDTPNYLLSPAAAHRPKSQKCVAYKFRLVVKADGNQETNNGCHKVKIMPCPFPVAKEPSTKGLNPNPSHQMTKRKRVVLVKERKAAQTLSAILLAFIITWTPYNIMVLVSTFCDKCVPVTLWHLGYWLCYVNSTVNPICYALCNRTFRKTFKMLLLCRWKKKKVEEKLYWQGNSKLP
The assay is classed as cell membranes, CHO-K1, Membrane. The conditions noted are these: cho-k1.

Assay [7] concerns the target Kappa-type opioid receptor (Homo sapiens, UniProt P41145). The experiment in a line: DRUGMATRIX: Opiate kappa (OP2, KOP) radioligand binding (ligand: [3H] Diprenorphine). The assay is classed as cell membranes, HEK293, Membrane. As to conditions: hek293; Not Active = under 50% inhibition at 10 µM.
Another assay concerns the target T4, Caspase-1 (Homo sapiens, UniProt P29466).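 Note: Caspase-1 enzyme inhibition assay with a peptide substrate; in other assays of this panel Not Active means under 50% inhibition at 10 µM.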
T4 sequence (P29466 whole entry): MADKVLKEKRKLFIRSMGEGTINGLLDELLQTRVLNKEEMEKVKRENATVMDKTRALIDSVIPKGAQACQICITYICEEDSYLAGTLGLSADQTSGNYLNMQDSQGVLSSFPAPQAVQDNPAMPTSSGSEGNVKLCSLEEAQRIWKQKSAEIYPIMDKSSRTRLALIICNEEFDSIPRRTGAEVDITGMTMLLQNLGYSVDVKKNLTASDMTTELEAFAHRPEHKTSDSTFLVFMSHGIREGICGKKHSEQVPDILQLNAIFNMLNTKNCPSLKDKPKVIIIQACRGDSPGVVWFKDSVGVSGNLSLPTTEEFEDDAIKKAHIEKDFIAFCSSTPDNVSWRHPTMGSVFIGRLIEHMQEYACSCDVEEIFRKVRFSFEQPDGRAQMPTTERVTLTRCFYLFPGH
Set-up: species or system Escherichia coli.

The target of assay [8] is Mitogen-activated protein kinase 14 (Homo sapiens, UniProt Q16539). Set-up: species or system Escherichia coli.
Chain of Mitogen-activated protein kinase 14 (Q16539 whole entry): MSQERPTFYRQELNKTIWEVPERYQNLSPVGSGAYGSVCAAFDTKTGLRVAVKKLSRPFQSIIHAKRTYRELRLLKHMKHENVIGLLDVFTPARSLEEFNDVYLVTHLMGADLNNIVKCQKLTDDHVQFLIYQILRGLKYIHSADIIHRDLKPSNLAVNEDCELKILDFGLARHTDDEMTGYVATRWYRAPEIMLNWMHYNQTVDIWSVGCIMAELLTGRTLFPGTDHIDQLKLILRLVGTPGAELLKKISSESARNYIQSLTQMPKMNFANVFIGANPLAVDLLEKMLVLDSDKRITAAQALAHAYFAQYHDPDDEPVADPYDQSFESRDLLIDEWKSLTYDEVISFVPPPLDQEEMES

Here are results for 9 compounds from ChEMBL document CHEMBL1909046, “DrugMatrix in vitro pharmacology data”.

By IC50 is commonly meant the concentration at which inhibition is half-maximal.

Chain of Kappa-type opioid receptor (P41145 whole entry): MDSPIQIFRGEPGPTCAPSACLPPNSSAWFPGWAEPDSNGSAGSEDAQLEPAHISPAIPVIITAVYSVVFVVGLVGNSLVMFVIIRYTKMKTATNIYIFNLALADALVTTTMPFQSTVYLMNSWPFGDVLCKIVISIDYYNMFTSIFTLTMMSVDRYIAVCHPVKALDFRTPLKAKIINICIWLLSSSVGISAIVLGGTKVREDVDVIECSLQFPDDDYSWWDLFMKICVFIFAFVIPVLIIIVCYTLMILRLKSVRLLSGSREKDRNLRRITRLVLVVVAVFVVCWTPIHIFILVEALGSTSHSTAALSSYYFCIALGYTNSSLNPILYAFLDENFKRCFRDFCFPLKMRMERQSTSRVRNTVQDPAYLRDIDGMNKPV
Chain of Vasopressin V1a receptor (P37288 whole entry): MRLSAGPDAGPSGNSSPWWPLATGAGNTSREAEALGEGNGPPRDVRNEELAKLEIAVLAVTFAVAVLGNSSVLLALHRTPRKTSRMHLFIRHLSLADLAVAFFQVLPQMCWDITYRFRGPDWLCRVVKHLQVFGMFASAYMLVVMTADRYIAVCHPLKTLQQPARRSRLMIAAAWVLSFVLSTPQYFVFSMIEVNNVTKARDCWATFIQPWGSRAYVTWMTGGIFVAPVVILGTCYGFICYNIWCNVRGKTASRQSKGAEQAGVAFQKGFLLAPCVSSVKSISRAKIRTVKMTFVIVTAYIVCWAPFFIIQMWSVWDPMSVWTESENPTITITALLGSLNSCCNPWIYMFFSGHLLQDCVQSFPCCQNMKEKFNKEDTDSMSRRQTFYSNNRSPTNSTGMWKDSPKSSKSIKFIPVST

On to `Cc1c(-c2ccccc2)oc2c(C(=O)OCCN3CCCCC3)cccc2c1=O` [FLAVOXATE], for which the IC50 result (in assay [1]; in assay [2]; at Vasopressin V1a receptor; in [3]; in [4]; in assay [5]) was “Not Active” in each case. The IC50 entry (in assay [6]; in assay [7]; on Caspase-1; in assay [8]) was “Not Active” each time. Also, the Ki entry in assay [1] and in assay [3] was “Not Active” each time.

Regarding `Nc1nc(=O)[nH]cc1F` [FLUCYTOSINE], the IC50 result (in [1]; in assay [2]; at Vasopressin V1a receptor; in [3]; in assay [4]; in [5]) was “Not Active” throughout. Moreover, the IC50 result (in assay [6]; in [7]; on Caspase-1; in [8]) was “Not Active” throughout. Also, the Ki entry in assay [1] and in assay [3] was “Not Active” each time.

Turning to `O=C1OC2(c3ccc(O)cc3Oc3cc(O)ccc32)c2ccccc21` [FLUORESCEIN], the IC50 result (in assay [1]; in assay [2]; against Vasopressin V1a receptor; in assay [3]; in assay [4]; in assay [5]) was “Not Active” in each case. For the same compound, the IC50 entry (in assay [6]; in [7]; against Caspase-1; in [8]) was “Not Active” in each case. In addition, the Ki result in [1] and in assay [3] was “Not Active” throughout.

For the compound `CC(=O)[C@@]1(O)CC[C@H]2[C@@H]3C[C@H](C)C4=CC(=O)C=C[C@]4(C)[C@@]3(F)[C@@H](O)C[C@@]21C` [FLUOROMETHOLONE], the IC50 result (in assay [1]; in assay [2]; at Vasopressin V1a receptor; in assay [3]; in [4]; in assay [5]) was “Not Active” throughout. Besides, the IC50 entry (in [6]; in assay [7]; on Caspase-1; in assay [8]) was “Not Active” throughout. In addition, the Ki result in assay [1] and in assay [3] was “Not Active” throughout.

`O=c1[nH]cc(F)c(=O)[nH]1` [FLUOROURACIL]: the IC50 result (in [1]; in assay [2]; on Vasopressin V1a receptor; in [3]; in [4]; in assay [5]) was “Not Active” each time. The IC50 entry (in assay [6]; in assay [7]; against Caspase-1; in assay [8]) was “Not Active” in each case. Moreover, the Ki entry in [1] and in assay [3] was “Not Active” each time.

As to `CC(C)n1c(/C=C/C(O)CC(O)CC(=O)O)c(-c2ccc(F)cc2)c2ccccc21` (stereo not drawn) [FLUVASTATIN], the IC50 entry in [1] is “Not Active”; in [2] it was “Not Active”; on Vasopressin V1a receptor, “Not Active”; in assay [3], “Not Active”; in assay [4] (read-out: IC50), 0.353 nM; in [5], “Not Active”. Besides, the IC50 entry (in assay [6]; in assay [7]; against Caspase-1; in [8]) was “Not Active” throughout. Also, the Ki entry in assay [1] and in assay [3] was “Not Active” each time.

For the compound `O=C1OCCN1/N=C/c1ccc([N+](=O)[O-])o1` [FURAZOLIDONE], the IC50 result (in assay [1]; in assay [2]; against Vasopressin V1a receptor; in assay [3]; in assay [4]; in assay [5]) was “Not Active” throughout. The IC50 result (in assay [6]; in assay [7]; against Caspase-1; in assay [8]) was “Not Active” in each case. Further, the Ki result in [1] and in assay [3] was “Not Active” throughout.

As to `NCC1(CC(=O)O)CCCCC1` [GABAPENTIN], the IC50 entry (in assay [1]; in [2]; at Vasopressin V1a receptor; in [3]; in assay [4]; in assay [5]) was “Not Active” each time. Moreover, the IC50 result (in [6]; in [7]; at Caspase-1; in assay [8]) was “Not Active” throughout. Further, the Ki result in assay [1] and in assay [3] was “Not Active” throughout.

In the case of `Nc1nc2c(ncn2COC(CO)CO)c(=O)[nH]1` [GANCICLOVIR], the IC50 result (in [1]; in assay [2]; on Vasopressin V1a receptor; in assay [3]; in [4]; in assay [5]) was “Not Active” each time. In addition, the IC50 entry (in assay [6]; in assay [7]; against Caspase-1; in assay [8]) was “Not Active” each time. Also, the Ki result in [1] and in assay [3] was “Not Active” each time.
